Assay results as given in patent US20230233541A1, “SUBSTITUTED BENZAMIDES AS MODULATORS OF TREX1” (Constellation Pharmaceuticals, Inc., priority 2020, published 2023).

Key:
full length human TREX1 = target: T1, full length human TREX1 (Homo sapiens, UniProt Q9NSU2); assay: TREX1 Biochemical Assay (fluorescence assay, degradation of dsDNA substrate); conditions: 150 pM TREX1, 60 nM dsDNA substrate, 25 minutes at room temperature; read-out: hTREX1 EC50
T1 construct: N-terminally His-Tev tagged full length human TREX1; His-Tev (His tag with TEV protease site) (N); made in house; host or cells: E. coli
T1 sequence (Q9NSU2 1-314): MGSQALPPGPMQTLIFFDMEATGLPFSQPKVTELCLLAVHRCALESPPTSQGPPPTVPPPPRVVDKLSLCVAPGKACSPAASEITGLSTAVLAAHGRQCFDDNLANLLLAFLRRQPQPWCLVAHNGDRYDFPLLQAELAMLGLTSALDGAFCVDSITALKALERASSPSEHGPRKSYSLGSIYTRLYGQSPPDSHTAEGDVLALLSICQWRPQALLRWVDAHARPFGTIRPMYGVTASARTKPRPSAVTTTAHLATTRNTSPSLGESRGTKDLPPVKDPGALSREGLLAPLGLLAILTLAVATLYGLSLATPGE
In short: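 E. coli-expressed His-Tev-tagged full-length TREX1 (150 pM) with 60 nM quenched-fluorophore dsDNA in Tris pH 7.4, 150 mM NaCl, 100 mM MgCl2, 1% DMSO, 25 min room temperature, 10-point dose-response. EDTA stop; fluorescence 615 nm (ex 570 nm); IC50 from four-parameter fit against pre-quenched and no-inhibitor controls.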

[1] = target: T2, human TREX2 (residues M44-A279) (Homo sapiens, UniProt Q9BQ50); assay: TREX2 Biochemical Assay (fluorescence assay, degradation of dsDNA substrate); conditions: 2.5 nM TREX2, 60 nM dsDNA substrate, 25 minutes at room temperature; read-out: hTREX2 EC50
T2 construct: human TREX2 (residues M44-A279, expressed in E. coli); His-Tev (His tag with TEV protease site) (N); made in house; host or cells: E. coli
T2 sequence (Q9BQ50 44-279 isoform Q9BQ50-1): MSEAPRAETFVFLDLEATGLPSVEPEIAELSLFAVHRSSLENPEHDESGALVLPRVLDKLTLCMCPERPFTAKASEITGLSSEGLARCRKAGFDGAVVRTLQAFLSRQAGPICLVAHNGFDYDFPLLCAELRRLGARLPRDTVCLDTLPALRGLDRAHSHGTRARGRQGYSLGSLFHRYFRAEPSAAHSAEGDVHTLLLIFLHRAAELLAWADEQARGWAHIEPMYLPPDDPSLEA
In short: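 His-Tev-tagged human TREX2 (M44-A279, E. coli-expressed) at 2.5 nM final, with 60 nM TEX615/quencher-labelled dsDNA in pH 7.4 Tris buffer with MgCl2 and 1.0% DMSO, 10-point dose-response, 25 min at room temperature, then EDTA quench. Fluorescence read at 615 nm (ex 570 nm). IC50 from four-parameter fit against pre-quenched and no-inhibitor controls.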

Row | Structure (SMILES) | EC50 (full length human TREX1) | EC50 [1]
1 | O=C(c1cccc(F)c1)N(CCc1ccccc1)Cc1cccnc1 [Compound 131] | > 10 µM | > 100 µM
2 | O=C(c1cccc(F)c1)N(Cc1cccnc1)CC1CCCCC1 [Compound 132] | > 10 µM | > 100 µM
3 | O=C(c1cccc(F)c1)N(CCc1ccc(Cl)cc1Cl)Cc1cccnc1 [Compound 133] | > 10 µM | > 100 µM
4 | O=C(c1cccc(F)c1)N(Cc1cccnc1)C1Cc2ccccc2C1 [Compound 134] | > 10 µM | > 100 µM
5 | Cc1cccc(CN(Cc2cccnc2)C(=O)c2cccc(F)c2)c1Cl [Compound 135] | 1 to 10 µM | 10 to 100 µM
6 | O=C(c1cccc(F)c1)N(Cc1cccnc1)Cc1cccc(Cl)c1Cl [Compound 136] | 0.1 to 1 µM | 10 to 100 µM
7 | O=C(c1cccc(F)c1)N(Cc1cccnc1)Cc1cccc(F)c1Cl [Compound 137] | 0.1 to 1 µM | 10 to 100 µM
8 | O=C(c1cccc(F)c1)N(Cc1ccc(Cl)cc1)Cc1cccnc1 [Compound 138, N-[(4-chlorophenyl)methyl]-3-fluoro-N-[(pyridin-3-yl)methyl]benzamide] | > 10 µM | > 100 µM
9 | O=C(c1cccc(F)c1)N(Cc1cccnc1)Cc1ccccc1Cl [Compound 139] | 1 to 10 µM | > 100 µM
10 | Cc1nocc1C(=O)N(Cc1cccnc1)Cc1ccc(Cl)cc1Cl [Compound 140] | > 10 µM | > 100 µM
11 | COC(=O)c1ccc(CN(Cc2ccc(Cl)cc2Cl)C(=O)c2cccc(F)c2)cn1 [Compound 141, methyl 5-({N-[(2,4-dichlorophenyl)methyl]-1-(3-fluorophenyl)formamido}methyl)pyridine-2-carboxylate] | > 10 µM | > 100 µM
12 | O=C(O)c1ccc(CN(Cc2ccc(Cl)cc2Cl)C(=O)c2cccc(F)c2)cn1 [Compound 142, 5-({N-[(2,4-dichlorophenyl)methyl]-1-(3-fluorophenyl)formamido}methyl)pyridine-2-carboxylic acid] | 0.1 to 1 µM | 10 to 100 µM
13 | NC(=O)c1ccc(CN(Cc2ccc(Cl)cc2Cl)C(=O)c2cccc(F)c2)cn1 [Compound 143, 5-({N-[(2,4-dichlorophenyl)methyl]-1-(3-fluorophenyl)formamido}methyl)pyridine-2-carboxamide] | > 10 µM | > 100 µM
14 | CNC(=O)c1ccc(CN(Cc2ccc(Cl)cc2Cl)C(=O)c2cccc(F)c2)cn1 [Compound 144, 5-({N-[(2,4-dichlorophenyl)methyl]-1-(3-fluorophenyl)formamido}methyl)-N-methylpyridine-2-carboxamide] | 1 to 10 µM | > 100 µM
15 | O=C(c1cccc(F)c1)N(Cc1ccc(CO)nc1)Cc1ccc(Cl)cc1Cl [Compound 145, N-(2,4-dichlorobenzyl)-3-fluoro-N-((6-(hydroxymethyl)pyridin-3-yl)methyl)benzamide] | 1 to 10 µM | 10 to 100 µM
16 | Nc1ccc(CN(Cc2ccc(Cl)cc2Cl)C(=O)c2cccc(F)c2)cn1 [Compound 146, N-[(6-aminopyridin-3-yl)methyl]-N-[(2,4-dichlorophenyl)methyl]-3-fluorobenzamide] | 1 to 10 µM | > 100 µM
17 | O=C(O)c1ccc(CN(Cc2cccc(Cl)c2Cl)C(=O)c2cccc(F)c2)cn1 [Compound 147] | < 0.1 µM | 1 to 10 µM
18 | O=C(O)c1ccc(CN(Cc2cccc(Cl)c2Cl)C(=O)c2cc(F)cc(F)c2)cn1 [Compound 148] | < 0.1 µM | < 1 µM
19 | NC(=O)c1ccc(CN(Cc2cccc(Cl)c2Cl)C(=O)c2cccc(F)c2)cn1 [Compound 149] | > 10 µM | > 100 µM
20 | NC(=O)c1ccc(CN(Cc2cccc(Cl)c2Cl)C(=O)c2cc(F)cc(F)c2)cn1 [Compound 150] | 1 to 10 µM | > 100 µM
21 | O=C(O)c1ccc(CN(Cc2ccccc2Cl)C(=O)c2cccc(F)c2)cn1 [Compound 151] | 0.1 to 1 µM | 10 to 100 µM
22 | O=C(O)c1ccc(CN(Cc2ccccc2Cl)C(=O)c2cc(F)cc(F)c2)cn1 [Compound 152] | < 0.1 µM | 1 to 10 µM
23 | C[C@H](c1ccc(Cl)cc1Cl)N(Cc1cccnc1)C(=O)c1cccc(F)c1 [Compound 155] | 0.1 to 1 µM | 10 to 100 µM
24 | C[C@@H](c1ccc(Cl)cc1Cl)N(Cc1cccnc1)C(=O)c1cccc(F)c1 [Compound 156] | > 10 µM | > 100 µM
25 | O=C(O)Cn1cc(CN(Cc2ccc(Cl)cc2Cl)C(=O)c2cc(F)cc(F)c2)cn1 [Compound 165, 2-(4-((N-(2,4-dichlorobenzyl)-3,5-difluorobenzamido)methyl)-1H-pyrazol-1-yl)acetic acid] | 1 to 10 µM | > 100 µM

Row | Structure (SMILES) | EC50 (full length human TREX1) | EC50 [1]
26 | CC[C@H](c1cccc(OC)c1Cl)N(Cc1ccc(C(=O)O)nc1)C(=O)c1cc(F)cc(F)c1 [Compound 166] | < 0.1 µM | 1 to 10 µM
27 | CC[C@@H](c1cccc(OC)c1Cl)N(Cc1ccc(C(=O)O)nc1)C(=O)c1cc(F)cc(F)c1 [Compound 167] | < 0.1 µM | 1 to 10 µM
28 | O=C(O)c1ccc(CN(Cc2ccc(Cl)cc2Cl)C(=O)c2cc(F)cc(F)c2)cc1 [Compound 168] | 1 to 10 µM | 10 to 100 µM
29 | O=C(c1cc(F)cc(F)c1)N(Cc1ccc(-c2nnn[nH]2)nc1)Cc1ccccc1Cl [Compound 169] | 0.1 to 1 µM | 10 to 100 µM
30 | O=C(c1cc(F)cc(F)c1)N(Cc1ccc(-c2ccn[nH]2)nc1)Cc1ccccc1Cl [Compound 170] | < 0.1 µM | 10 to 100 µM
31 | O=C(c1cc(F)cc(F)c1)N(Cc1ccc(-c2cnn[nH]2)nc1)Cc1ccccc1Cl [Compound 171] | 0.1 to 1 µM | 10 to 100 µM
32 | O=C(O)c1ccc(CN(Cc2ccccc2C(F)(F)F)C(=O)c2cc(F)cc(F)c2)cn1 [Compound 172] | < 0.1 µM | 1 to 10 µM
33 | C[C@H](c1cccc(Cl)c1Cl)N(Cc1ccc(C(=O)O)nc1)C(=O)c1cc(F)cc(F)c1 [Compound 173] | 0.1 to 1 µM | 10 to 100 µM
34 | C[C@@H](c1cccc(Cl)c1Cl)N(Cc1ccc(C(=O)O)nc1)C(=O)c1cc(F)cc(F)c1 [Compound 174] | < 0.1 µM | < 1 µM
35 | O=C(c1cc(F)cc(F)c1)N(Cc1ccc(-n2cccn2)nc1)Cc1ccc(Cl)cc1Cl [Compound 175] | 0.1 to 1 µM | > 100 µM
36 | O=C(c1cc(F)cc(F)c1)N(Cc1cnccc1Cl)Cc1cnccc1Cl [Compound 176] | 0.1 to 1 µM | 1 to 10 µM
37 | N#CCC[C@@H](c1ccccc1Cl)N(Cc1cccnc1)C(=O)c1cc(F)cc(F)c1 [Compound 177] | 0.1 to 1 µM | 10 to 100 µM
38 | N#CCC[C@H](c1ccccc1Cl)N(Cc1cccnc1)C(=O)c1cc(F)cc(F)c1 [Compound 178] | 1 to 10 µM | 10 to 100 µM
39 | O=C(c1cc(F)cc(F)c1)N(Cc1cccnc1CO)Cc1cccc(Cl)c1Cl [Compound 180] | 0.1 to 1 µM | 1 to 10 µM
40 | O=C(c1cc(F)cc(F)c1)N(Cc1cnc2c(=O)[nH]c(=O)[nH]c2c1)Cc1cccc(Cl)c1Cl [Compound 181] | 0.1 to 1 µM | 1 to 10 µM
41 | O=C1NCc2cc(CN(Cc3ccccc3Cl)C(=O)c3cc(F)cc(F)c3)cnc21 [Compound 182] | 1 to 10 µM | 10 to 100 µM
42 | O=C(c1cc(F)cc(F)c1)N(Cc1cnc2c(=O)[nH]cnc2c1)Cc1ccccc1Cl [Compound 183] | 0.1 to 1 µM | 10 to 100 µM
43 | Cn1ncc(CN(Cc2ccc(C(=O)O)nc2)C(=O)c2cc(F)cc(F)c2)c1Cl [Compound 184] | 0.1 to 1 µM | 10 to 100 µM
44 | Cn1cc(CN(Cc2ccc(C(=O)O)nc2)C(=O)c2cc(F)cc(F)c2)c(C(F)(F)F)n1 [Compound 185] | 0.1 to 1 µM | 10 to 100 µM
45 | O=C(O)c1ccc(CN(Cc2c(Cl)cccc2Cl)C(=O)c2cc(F)cc(F)c2)cn1 [Compound 186] | < 0.1 µM | 1 to 10 µM
46 | O=C(O)c1ccc(CN(Cc2cc(Cl)ccc2Cl)C(=O)c2cc(F)cc(F)c2)cn1 [Compound 187] | < 0.1 µM | 1 to 10 µM
47 | COc1nccc(CN(Cc2ccc(C(=O)O)nc2)C(=O)c2cc(F)cc(F)c2)c1Cl [Compound 188] | < 0.1 µM | 1 to 10 µM
48 | COc1ccnc(CN(Cc2ccc(C(=O)O)nc2)C(=O)c2cc(F)cc(F)c2)c1Cl [Compound 189] | 0.1 to 1 µM | 10 to 100 µM
49 | O=C(O)c1ccc(CN(Cc2ncc3ccccc3c2Cl)C(=O)c2cc(F)cc(F)c2)cn1 [Compound 190] | < 0.1 µM | 1 to 10 µM
